This note sets out measurements from article PMC10107299, “Neutralizing the Impact of the Virulence Factor LecA from Pseudomonas aeruginosa on Human Cells with New Glycomimetic Inhibitors” (Angewandte Chemie (International Ed. in English), 2023).

Structures are written as SMILES.

One series concerns H1299 cells. The series can be described thus: Cell proliferation (MTT) cytotoxicity assay. It counts as cell-based, human. The settings on record: 24 h; for Cytotoxicity on H1299 cells: 10–100 μM; for Inhibition of cell proliferation: 500 and 750 μM. Here is the method:
Additionally, the cytotoxicity of sulfonated ligands K2 and L2 on H1299 cells was evaluated prior to the invasion assay (Figure S12). […]
Cell proliferation (MTT) assay
The MTT assay (MTT Cell Proliferation Kit, Roche Holding AG, Basel, Switzerland) was used to evaluate the cytotoxicity of inhibitors on H1299 cells. 3.5 x 10^4 cells per well were transferred to a 96-well plate with a U-bottom. The cells were centrifuged at 1600 x g for 3 min at room temperature. The cell pellet was resuspended in 100 μL of inhibitor solutions (1–750 µM) and transferred to a 96-well flat-bottomed plate. The cells were incubated for 24 h at 37 °C.
Subsequently, 10 μL of MTT labelling solution was added to each well and the cells were incubated for another 4 h at 37 °C. Afterwards, 100 μL of the kit solubilization reagent were added to each well and the plate was incubated at 37 °C overnight. The next day, the absorbance of the samples was measured at 550 nm using a BioTek microplate reader (BioTek Instruments

The nature of series [1]: Thermodynamic solubility in TBS/Ca2+ buffer. The series is classed as physicochemical. From the text: Next, we quantified the solubility of at least one representative of each new class and of one parent bisacylhydrazone in aqueous media (Table 1).
For another series, the system named is plasma protein. The series can be described thus: Plasma protein binding (rapid equilibrium device), human plasma. The series is classed as in vitro ADME. Conditions: 1 µM. On the procedure:
mixer (Eppendorf). Acetonitrile and caffeine were dispensed using a Mantis Formulatrix. Then samples were centrifuged for 20 min at 2.270 x g at 4 °C and the supernatants were transferred to 96-well Greiner V-bottom plates. Peak areas of each compound and of the internal standard were analyzed using the MultiQuant 3.0 software (AB Sciex). Peak areas of the respective compound were normalized to the internal standard peak area and to the respective peak areas at time point 0 min: (C/D)/(A/B) with A: peak area of the compound at time point 0 min, B: peak area of the internal standard at time point 0 min, C: peak area of the compound at the respective time point, D: peak area of the internal standard at the respective time point. […]
Assessment of plasma protein binding
Plasma protein binding was assessed using the rapid equilibrium device (RED) system from ThermoFisher. Compounds were dissolved in DMSO. […]
high plasma protein binding. Compounds were diluted in murine plasma (from CD-1 mice, pooled) or in human plasma (human donors, both genders, pooled) to a final concentration of 1 µM. Dialysis buffer and plasma samples were added to the respective chambers according the manufacturer’s protocol. The RED plate was sealed with a tape and incubated at 37 °C for 2 hours at 800 rpm on an Eppendorf MixMate vortex-mixer. Then samples were withdrawn from the respective chambers. To 25 µL of each dialysis sample, 25 µL of plasma and to 25 µL of plasma sample, 25 µL of dialysis buffer was added. Then 150 µL ice-cold extraction solvent (ACN/H2O (90:10) containing 12.5 ng/mL caffeine as internal standard) was added. Samples were incubated for 30 min on ice. Then samples were centrifuged at 4 °C at 2270 x g for 10 min.
Supernatants were transferred to Greiner V-bottom 96-well plates and sealed with a tape. The […]
percentage of bound compound was calculated as follows:
(1) % free = (concentration buffer chamber / concentration plasma chamber) *100 […]
Samples were analyzed using an Agilent 1290 Infinity II HPLC system coupled to an AB Sciex QTrap 6500plus mass spectrometer. LC conditions were as follows: column: Agilent […]
Zorbax Eclipse Plus C18, 50x2.1 mm, 1.8 µm; temperature: 30 °C; injection volume: 5 µL per […]
sample; flow rate: 700 µL/min. Samples were run under acidic and buffered conditions.
Solvents for acidic conditions: A1: water + 0.1% formic acid; solvent B1: 95% acetonitrile/5% […]
H2O + 0.1% formic acid; solvents for buffered conditions: A2: 95% water + 5% acetonitrile + […]
5 mM ammonium acetate + 40 µL/L acetic acid; B2: 95% acetonitrile + 5% water + 5 mM […]
ammonium acetate + 40 µL/L acetic acid. The same gradient was applied for acidic and […]
buffered conditions: 99% A at 0 min, 99% A until 1 min, 99% - 0% A from 1 min to 4.0 min, […]
0% A until 5.0 min. Mass transitions for controls and compounds are depicted in the following […]

As to `Cc1ccc(NC(=O)CCc2ccc(O[C@@H]3O[C@H](CO)[C@H](O)[C@H](O)[C@H]3O)cc2)cc1S(=O)(=O)O` [Compound K2], in the series on H1299 cells, the “Cytotoxicity on H1299 cells” value was “did not exhibit significant toxicity” and the “Inhibition of cell proliferation” value was > 50%.

Turning to `O=C(CCc1ccc(O[C@@H]2O[C@H](CO)[C@H](O)[C@H](O)[C@H]2O)cc1)Nc1ccc(CCc2ccc(NC(=O)CCc3ccc(O[C@@H]4O[C@H](CO)[C@H](O)[C@H](O)[C@H]4O)cc3)cc2S(=O)(=O)O)c(S(=O)(=O)O)c1` [Compound L2], the solubility (usually how much of the substance goes into solution per volume) in series [1] (TBS/Ca2+ buffer, pH 7.4, thermodynamic from solid, aqueous buffer, from solid, read-out: Solubility S (dissolved from solid form in aqueous buffer)) was > 1500 µM. In addition, in series [1] (pH 7.4), the “Increase in solubility versus parent bisacylhydrazones” value was “over 1000 fold”. Also, the solubility (thermodynamic) (in general, solubility found after equilibrating the solid with the medium) in series [1] (pH 7.4, aqueous buffer, thermodynamic from solid, TBS/Ca2+ buffer w/o DMSO, N=1, read-out: Solubility S (thermodynamic)) was > 1500 µM. The “PPB Human” value in the series with plasma protein stood at 38.5 ± 12.4%. For the same molecule, in the series on H1299 cells, the “Cytotoxicity on H1299 cells” value is listed as “did not exhibit significant toxicity” and the “Inhibition of cell proliferation” value was > 50%.
